Patent publication US20070098802A1, “Organic nanoparticles and associated methods” (priority 2005, published 2007)

Experiment: Nanoparticle size by light scattering and scanning electron microscopy
Format: physicochemical
Settings: 0.5% (w/v), 5 mg/ml glyburide in 70% ethanol and 30% chloroform by weight; water added until clouding
Protocol: A 0.5% (w/v) mixture of 5 mg/ml of glyburide in 70% ethanol and 30% chloroform by weight is prepared. To this mixture, water is added until clouding is observed at which point the emulsion has formed. Light scattering and scanning electron microscopy show the resulting nanoparticle size is on average about 500 nm. A few large nanoparticles may be observed of up to 1 to 3 μm.

Question: With COc1ccc(Cl)cc1C(=O)NCCc1ccc(S(=O)(=O)NC(=O)NC2CCCCC2)cc1 [glyburide] as the molecule, how does the “resulting nanoparticle size, on average” value read?
Answer: about 500 nm
